Values of other authors as cited in US20260166131A1, “METHOD FOR PROMOTING PATHOLOGICAL TDP-43 PROTEIN DEGRADATION, AND DRUG” (TALENGEN INTERNATIONAL LIMITED, priority 2022, published 2026).
“And” between values parts separate entries of the source, which are not always exact repeats. Identical values can stand only once. Like-named read-outs stand apart in the source and are kept apart here.

System: ALS patients
Settings: for ALSFRS-R score before dosing: literature
[1] = Edaravone 6 months, intravenous injection
[2] = Riluzole 6 months, taking orally

CC1=NN(c2ccccc2)C(=O)C1 [Edaravone]
ALSFRS-R score after dosing [1]: 36.89 | ALSFRS-R scoring change [1]: −5.01±0.64 points and −5.01 points | ALSFRS-R score before dosing (Edaravone): 41.9

Nc1nc2ccc(OC(F)(F)F)cc2s1 [Riluzole]
ALSFRS-R score after dosing [2]: 33.2 | ALSFRS-R scoring change [2]: −7.0+7.1 points and −7.0 points | ALSFRS-R score before dosing (Riluzole): 40.2
